We go through four molecules from patent publication US20060204980A1, “Colorectal cancer therapies” (priority 2004, published 2006).

What all share (assay type): cell-based
Assay [1] concerns p53^+/+ HCT116 colorectal carcinoma cells. In words: Western blotting of p53 pathway proteins in treated p53+/+ HCT116 cells. The settings on record: for p53 expression (Western blot) / survivin expression (Western blot) / p21^Waf1/Cip1 expression (Western blot): p53+/+ HCT116; for p53 expression (Western blot) / p21^Waf1/Cip1 expression (Western blot): 6-24 hours. The protocol: (§1) Cells were collected and centrifuged at 3,000 rpm for 5 minutes at 4° C., and washed in PBS (pH 7.2). The cell pellet was solubilized in lysis buffer (20 mM Tris, pH 7.2, 0.5% deoxycholate, 1% Triton X-100, 0.1% SDS, 150 mM NaCl, 1 mM EDTA) containing proteases inhibitors (Complete, Roche Applied Science) for 30 min at 4° C. The lysate was cleared by centrifugation for 15 minutes, and protein concentration was evaluated using a Bio-Rad protein assay system (Bio-Rad Laboratories, Hercules, Calif.). Samples (30 μg) were separated by SDS-polyacrylamide gel, transferred to nylon membranes (Millipore), and incubated with primary antibodies to p53 (Oncogene Research Products, FL-393, Santa Cruz Biotechnology, Inc., Santa Cruz, Calif.), p21^Waf1/Cip1 (Oncogene Research Products), XIAP (BD Transduction Laboratories), survivin (NOVUS Biologicals, Littleton, Colo.), MDM2 (Santa Cruz Biotechnology, Inc.), p14^ARF (NOVUS Biologicals), caspase-3 (Cell Signaling Technology), cleaved caspase-3 (Cell Signaling Technology), β-catenin (BD Transduction Laboratories), cyclin B1 (GNS1, Santa Cruz Biotechnology, Inc.), GSK3β (Santa Cruz Biotechnology, Inc.), or β-sactin (Sigma) with detection of reactive bands by chemiluminescence (Amersham). Cells were analyzed for hypodiploid DNA content by propidium iodide staining and flow cytometry as described in O'Connor et al., Cancer Cell, 2:43-54 (2002). Chemicals whose source is not explicitly listed were or can be obtained from Sigma.
To explore the link between GSK3β inhibition and p53 modulation, in vivo, HCT116 cells were treated with Li, TDZD or SB216763, and analyzed cells by Western blotting. p53^+/+ or p53^−/− HCT116 cells were incubated with the following GSK3β inhibitors, LiCl (Sigma, 30 mM), thiadiazolidinone-8 (TDZD) (Calbiochem, 0-20 μM), or SB216763 (Sigma, 20 μM), cells were harvested after 6-24 hours, and samples were analyzed by Western blotting as described in Example 2. […]
(A western blot detects proteins with antibodies after separation by electrophoresis.)

For the next assay, the target named is GSK3β (Homo sapiens, UniProt P49841). Put plainly: Immunoprecipitation and GSK3β kinase assay using glycogen synthase-derived peptide substrate, from treated HCT116 cells. The settings on record: p53+/+ HCT116 cells; Purvalanol A 10 μM, LiCl 30 mM, TDZD 20 μM; 6 or 12 hours. Details: harvested after 6 or 12 hours, and immunoprecipitated with an antibody to GSK3β; endogenous in cells; host or cells: HCT116 (p53+/+) colorectal carcinoma cells. Here is the method:
Immune complexes were mixed with a synthetic peptide containing a GSK3β phosphorylation site derived from the sequence of glycogen synthase (Upstate Biotechnology) in the presence of 10 μCi of γ-^32P-ATP (Amersham Corp., Piscataway, N.J.), after 30 min incubation at 30° C., the reaction mixtures were centrifuged briefly, and 15 μl of the supernatant was spotted onto P81 phosphocellulose paper (Whatman Inc., Clifton, N.J.). The membrane was washed three times with 175 mM phosphoric acid, rinsed once in acetone, and dried. Changes in peptide phosphorylation under the various conditions tested were determined by scintillation counting. Data were analyzed using the unpaired t test on a Graphpad Prism software package for Windows (Graphpad Inc., San Diego, Calif.). A P value of 0.05 was considered as statistically significant.

The subject of the next assay is p53^−/− HCT116 cells. In words: Multiparametric flow cytometry of caspase-3/7 (DEVDase) activity and cell viability, p53-/- HCT116. To be noted: TDZD 20 μM, 48 hours; for apoptosis induction (DEVDase activity and plasma membrane integrity): p53-/- HCT116, LiCl 30 mM. Here is the method:
(§2) The functional consequences of GSK3β inhibition were explored. Source and maintenance of p53^+/+ and p53^−/− HCT116 colorectal carcinoma cells were as described in Example 2. […] Alternatively, cells were incubated with GSK3β inhibitors LiCl (30 mM) or TDZD (20 μM), harvested after 48 hours and analyzed for cell viability (propidium iodide, red channel) and active caspase-3/7 activity (green channel, […]®, from Chemicon International Inc., Temecula, Calif.), by multiparametric flow cytometry as reported previously in Kim et al., Lancet, 362:205-209 (2003).
(§3) To clarify the role of GSK3β inhibition in p53-dependent apoptosis, HCT116 cells were treated with TDZD or LiCl and monitored changes in cell death. […] See the two center column panels of FIG. 6C. […] See right hand column panels of FIG. 6C.

Assay [2] deals with p53^−/− HCT116 colorectal carcinoma cells. In words: Western blotting of p53 pathway proteins in treated p53-/- HCT116 cells. The protocol: as §1
To explore the link between GSK3β inhibition and p53 modulation, in vivo, HCT116 cells were treated with Li, TDZD or SB216763, and analyzed cells by Western blotting. p53^+/+ or p53^−/− HCT116 cells were incubated with the following GSK3β inhibitors, LiCl (Sigma, 30 mM), thiadiazolidinone-8 (TDZD) (Calbiochem, 0-20 μM), or SB216763 (Sigma, 20 μM), cells were harvested after 6-24 hours, and samples were analyzed by Western blotting as described in Example 2.

The next assay deals with p53^+/+ HCT116 cells. Put plainly: Multiparametric flow cytometry of caspase-3/7 (DEVDase) activity and cell viability, p53+/+ HCT116. The settings on record: TDZD 20 μM, 48 hours; for caspase-dependent apoptosis (DEVDase activity and plasma membrane integrity): p53+/+ HCT116, LiCl 30 mM. The protocol: as §2, §3

GSK3β, sequence (P49841 whole entry): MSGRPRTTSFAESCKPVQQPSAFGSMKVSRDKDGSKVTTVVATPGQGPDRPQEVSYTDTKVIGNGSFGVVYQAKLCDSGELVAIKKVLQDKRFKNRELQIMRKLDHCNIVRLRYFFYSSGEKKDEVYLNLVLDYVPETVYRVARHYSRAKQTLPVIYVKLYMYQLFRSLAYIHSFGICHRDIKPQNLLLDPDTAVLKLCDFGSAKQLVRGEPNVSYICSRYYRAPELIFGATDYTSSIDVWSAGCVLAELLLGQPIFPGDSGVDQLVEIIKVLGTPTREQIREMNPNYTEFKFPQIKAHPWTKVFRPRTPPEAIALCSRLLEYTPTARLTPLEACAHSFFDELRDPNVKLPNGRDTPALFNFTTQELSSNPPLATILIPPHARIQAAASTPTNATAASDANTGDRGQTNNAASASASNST

In the case of `O=C1Cc2c([nH]c3ccc([N+](=O)[O-])cc23)-c2ccccc2N1` [alsterpaullone], the “p53 expression (Western blot)” value in assay [1] is on record as “elevation of p53 levels”.
`Cn1sc(=O)n(Cc2ccccc2)c1=O` [TDZD, 4-Benzyl-2-methyl-1,2,4-thiadiazolidine-3,5-dione]: on GSK3β, the “GSK3β kinase activity (peptide phosphorylation)” value is “suppressed GSK3β activity”. In addition, the “apoptosis induction (DEVDase activity and plasma membrane integrity)” value in the assay on p53^−/− HCT116 cells was “considerably less effective at inducing apoptosis”. For the same molecule, the “increase in fraction of apoptotic cells” value in the assay on p53^−/− HCT116 cells (p53-/- cells) was 1.7 fold. Further, the “survivin expression (Western blot)” value in assay [2] is reported as “no changes in survivin expression”. In addition, in the assay with p53^+/+ HCT116 cells, the “caspase-dependent apoptosis (DEVDase activity and plasma membrane integrity)” value is given as “reproduced caspase-dependent apoptosis”. Moreover, the “increase in fraction of apoptotic cells” value in the assay on p53^+/+ HCT116 cells (p53+/+ cultures) was roughly 4.5 fold. In assay [1] (HCT116 cells), the “MDM2 expression (Western blot)” value is recorded as “reduced expression”. Moreover, the “p14^ARF expression (Western blot)” value in assay [1] (HCT116 cells, relative to vehicle) is listed as “upregulation of p14^ARF”. Moreover, in assay [1], the “survivin expression (Western blot)” value is “time-dependent downregulation of survivin”, the “p21^Waf1/Cip1 expression (Western blot)” value is “prominent upregulation” and the “p53 expression (Western blot)” value is “strong induction of p53”.
Turning to `[Cl-].[Li+]` [LiCl, lithium chloride], at GSK3β, the “GSK3β kinase activity (peptide phosphorylation)” value is “suppressed GSK3β activity”. For the same molecule, in the assay with p53^−/− HCT116 cells, the “apoptosis induction (DEVDase activity and plasma membrane integrity)” value was “considerably less effective at inducing apoptosis”. Besides, in the assay on p53^+/+ HCT116 cells, the “caspase-dependent apoptosis (DEVDase activity and plasma membrane integrity)” value is reported as “reproduced caspase-dependent apoptosis”. Further, in assay [1], the “survivin expression (Western blot)” value was “time-dependent downregulation of survivin” and the “p53 expression (Western blot)” value was “elevation of p53 levels only at 24 hours after treatment”.
For the molecule `Cn1cc(C2=C(c3ccc(Cl)cc3Cl)C(=O)NC2=O)c2ccccc21` [SB216763], in assay [1], the “p21^Waf1/Cip1 expression (Western blot)” value is listed as “prominent upregulation” and the “p53 expression (Western blot)” value is listed as “strong induction of p53”.
